{"source": "patent US20220354911A1", "about": "“TREATMENT OF TUMORS BY A COMBINATION OF AN ONCOLYTIC ADENOVIRUS, A CDK4/6 INHIBITOR AND A FURTHER THERAPEUTICALLY ACTIVE AGENT” (KLINIKUM RECHTS DER ISAR DER TECHNISCHEN UNIVERSITÄT MÜNCHEN, priority 2019, published 2022)", "key": {"dl703": {"test_system": "dl703", "experiment": "E1A-independent viral DNA replication of dl703 (fiber qPCR)", "assay_type": "cell-based, Mastadenovirus, Type C, Serotype 5", "conditions": "UMUC cells, 10 μM Lee, 50 MOI dl703, 48 hours post infection", "method": "To investigate the differences in replication of dl703 (Mantwill et al. 2013, Journal of Translational Medicine, 11, 216) under different treatment conditions, DNA-replication analysis was performed. 100,000 UMUC cells were seeded in 6-well plates and grown in DMEM medium containing 10% FCS in 5% CO2 conditions at 37° C. 24 hours post seeding cells were treated for 24 hours with 10 μM Lee (Ribociclib), 1 μM CI-1040, 10 μM Nutlin-3a and 10 μM Roscovertine and again after infection adding an appropriate amount of inhibitors to the medium. Infection with 50 MOI dl703 (Mastadenovirus, Type C, Serotype 5 with a 3.2 kb sized deletion in E1 region) took place 24 hours post treatment. After 4 and 48 hours post infection DNA were isolated and qPCR was performed using specific primers for the viral fiber gene. Fiber fwd. 5′-[…]-3′ (SEQ ID NO: 17); Fiber rev. 5′-[…]-3′ (SEQ ID NO: 18)."}, "Rb, phRB and E2F1": {"test_system": "Rb, phRB and E2F1", "experiment": "Western blot of UMUC cells treated with cell cycle inhibitors", "assay_type": "cell-based, human", "conditions": "24 hours post-treatment, LEE-011 at 10 μM, MI-1040 at 1 μM", "method": "Western Blot analysis of UMUC cells treated with indicated concentrations of CI-1040, Roscovitine, Nutlin-3a and LEE011 (Ribociclib). 1×10^6 cells were seeded in 10 cm dishes. 24 hours post-treatment proteins were isolated using 1% SDS buffer, to achieve the disruption of the nuclear membrane. All samples were drawn up several times into a syringe to disrupt the DNA and subsequently centrifuged at 30000 rpm at 4° C. for 30 minutes. The supernatant was transferred to a new reaction tube and directly used for further steps or stored at −80° C. To separate the proteins a sodium dodecyl sulfate polyacrylamide gel electrophoresis was performed. By means of electrophoresis for approximately two hours at 100V at 4° C., 40 μg of total proteins were loaded and probed against specific indicated antibodies."}, "UMUC3 cells": {"test_system": "UMUC3 cells", "experiment": "Cell cycle analysis (flow cytometry) of UMUC3 cells", "assay_type": "cell-based, human", "conditions": "UMUC3, 48 hours; Roscovitine 10 μM, CI-1040 1 μM, Nutlin-3a 10 μM, LEE011 10 μM; 10 MOI dl703", "method": "FIG. 10 is a bar diagram showing cell cycle distribution in UMUC3 cells, measured 48 hours post treatment, whereby the concentrations of the […] inhibitors was as follows: Roscovitine: 10 μM, CI-1040: 1 μM, Nutlin-3a: 10 μM, and LEE011: 10 μM.\nFor cell cycle analysis cells were seeded in 6 well plates (2.5×10E4 c/well). 8 hours before infection with dl703, cells were treated with indicated concentration of cell cycle inhibitors. After infection with 10 MOI dl703 cells were again treated for 48 hours. Untreated cells and dl703 infected cells only, served as control. 48h post infection cells were harvest by trypsinization and fixed with 80% ethanol while vortexing. To investigate the cell cycle status, fixed cells were centrifuged 5 min at RT and 300 g and ethanol was aspirated. Cells were resuspended and washed with 1% BSA-PBS (Bovine Serum Albumin) and again centrifuged. Cells were stained with EDU and cell cycle analysis were performed using the Click-iT™ Plus EdU Flow Cytometry Assay Kits, Catalog nos. C10632 from Thermo Fischer. In addition, after 3× times washing with 1% BSA/PBS cells were stained with PI (Propidium Iodine, 50 μg/ml). Measurement was directly performed after staining with a FACScalibur Flow Cytometry System. Data was analyzed with FlowJo software."}, "[1]": {"test_system": "U87 cells, LN229 cells or T98G cells", "experiment": "SRB cell survival in glioblastoma cells, XVir-N-31, JQ1 and LEE011", "assay_type": "cell-based", "conditions": "all three glioblastoma cell lines", "method": "2×10^4 cells (U87 cells, LN229 cells or T98G cells) were seeded in 12 well plates in DMEM medium and inhibitor treated at the next day. 48 hours post seeding the cells were infected with XVir-N-31. After 4 days the cells were fixated using 10% TCA. The plates were stained using a 0.1% SRB solution. The surplus was removed and the plates were washed with 1% acetic acid. After removing the acetic acid, the plates were air dried overnight. The SRB was solved in 1 ml of a 10 mM Tris Base solution and a 1:10 dilution was measured using a photometer at 560 nm."}, "LN229 cells": {"test_system": "LN229 cells", "experiment": "Western blot of XVir-N-31 infected LN229 cells, LEE011 and JQ1", "assay_type": "cell-based", "method": "2.5×10^5 LN229 cells were seeded in 10 cm plates in DMEM medium. The following day the cells were treated with 500 nM LEE011 and 200 nM JQ1 or a combination of both. At the next morning the cells were infected with XVir-N-31 at 20 MOI. One hour after infection DMEM Medium containing the inhibitors was added on the cells. After each time point (24, 48, 72 hours) the cells were put on ice, washed twice with ice-cold PBS and 300 μl of SDS Protein Lysis Buffer was added. The cells were transferred to reaction tubes and the DNA sheared with a syringe and a needle and the supernatant transferred for further use after centrifugation. The protein concentration was measured with a BCA assay and samples with 4× Lämmli:DTT 6:1 and a concertation of 20 μg were produced and transferred to a 10% SDS gel. The gel electrophoresis started at 90V and was increased to 150V after the ladder started to separate. The proteins on the gel were blotted to a membrane for 2 hours at 100V and blocked in 5% milk in TBS-T for 1 hour at RT. After washing in TBS-T, the first antibody was added according to the manufacturer's information over night at 4° C. The used antibodies were directed to GAPDH, E1A, DBP, E2F1, Rb, pRb for all time points, and caspase 3 and the full length and cleaved version of PARP additionally for the 72 hours samples. The next day, the washing was repeated and the secondary antibody added for 1 hour at RT. Following the washing, ECL was used to image the chemiluminescence by the ChemiDoc™ MP Imaging System."}, "[2]": {"conditions": "LN229, with XVir-N-31, 48 hours post infection"}, "[3]": {"conditions": "LN229, with XVir-N-31, 72 hours post infection"}}, "data": [{"compound": "CN(C)C(=O)c1cc2cnc(Nc3ccc(N4CCNCC4)cn3)nc2n1C1CCCC1", "note": "[LEE011]", "values": [{"measurement": "increase of viral DNA replication of dl703", "setting": "dl703", "value": "~100", "unit": "fold"}, {"measurement": "Rb, phRB and E2F1 expression", "setting": "Rb, phRB and E2F1", "value": "induced inhibition"}, {"measurement": "cell cycle distribution", "setting": "UMUC3 cells", "value": "clear G1-arrest"}, {"measurement": "cell killing on addition of LEE011 to JQ1 and XVir-N-31", "setting": "[1]", "value": "increased even further"}, {"measurement": "viral proteins E1A and DBP", "setting": "LN229 cells; LN229, XVir-N-31 MOI 20, 500 nM LEE011 or/and 200 nM JQ-1, 24 hours post infection", "value": "increased"}, {"measurement": "viral proteins E1A and DBP", "setting": "LN229 cells; LN229, XVir-N-31 MOI 20, 500 nM LEE011 or/and 200 nM JQ-1, 48 hours post infection", "value": "increased"}, {"measurement": "viral proteins E1A and DBP", "setting": "LN229 cells; LN229, XVir-N-31 MOI 20, 500 nM LEE011 or/and 200 nM JQ-1, 72 hours post infection", "value": "increased"}, {"measurement": "cellular proteins Rb and pRb", "setting": "LN229 cells; LN229, with XVir-N-31, 24 hours post infection", "value": "remained inhibited"}, {"measurement": "E2F-1", "setting": "LN229 cells; [2]", "value": "stabilized"}, {"measurement": "cellular proteins Rb and pRb", "setting": "LN229 cells; [2]", "value": "remained inhibited"}, {"measurement": "E2F1", "setting": "LN229 cells; [3]", "value": "enhanced"}, {"measurement": "cellular protein Rb", "setting": "LN229 cells; [3]", "value": "decreased"}, {"measurement": "presence of cleaved PARP", "setting": "LN229 cells; XVir-N-31 infected LN229 cells, 72 hours post infection", "value": "increased"}]}]}
